Assay results published in article PMC6718946 (Toxicology Reports, 2019).
“And” between values parts separate entries of the source, which are not always exact repeats. Equal values may be shown once. Read-outs that look alike come from different tables or passages of the source.

Tests used:
[1] = target: acetylcholinesterase (AChE) (Electrophorus electricus, UniProt O42275); settings: for IC50: estimated from Fig. 1
Artemia salina [2] = assay: Toxicology assay on Artemia salina model; settings: for Mortality of A. salina: 24 h
Artemia salina [3] = settings: in vivo; cited from earlier work
AChE [4] = settings: cited from earlier work
AChE [5] = settings: cited from earlier work; remark: listed apart in the source
AChE [6] = settings: cited from earlier work; remark: listed apart in the source

Chain of acetylcholinesterase (AChE) (O42275 24-633): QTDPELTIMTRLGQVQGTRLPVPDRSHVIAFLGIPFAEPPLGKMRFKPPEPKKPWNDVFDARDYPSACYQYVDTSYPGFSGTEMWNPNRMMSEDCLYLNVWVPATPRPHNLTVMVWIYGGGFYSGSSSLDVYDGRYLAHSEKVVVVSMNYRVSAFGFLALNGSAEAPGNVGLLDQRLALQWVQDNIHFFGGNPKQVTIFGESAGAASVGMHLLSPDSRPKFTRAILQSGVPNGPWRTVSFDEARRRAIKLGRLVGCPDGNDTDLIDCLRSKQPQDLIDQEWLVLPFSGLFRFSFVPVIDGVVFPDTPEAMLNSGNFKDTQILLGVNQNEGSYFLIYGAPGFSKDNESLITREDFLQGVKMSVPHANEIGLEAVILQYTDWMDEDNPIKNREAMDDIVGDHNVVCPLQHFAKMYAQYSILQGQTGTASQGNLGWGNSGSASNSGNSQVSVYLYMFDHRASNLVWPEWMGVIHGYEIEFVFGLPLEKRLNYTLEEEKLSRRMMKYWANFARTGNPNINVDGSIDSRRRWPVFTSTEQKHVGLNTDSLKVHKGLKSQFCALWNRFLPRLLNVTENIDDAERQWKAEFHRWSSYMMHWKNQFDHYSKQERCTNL

1-Hydroxyquinopimaric acid [Compound U-201]
Inhibition mechanism ([1]; Lineweaver-Burk analysis): Competitive

C=CCNC(=O)N1C[C@H]2C[C@H](C1)c1cccc(=O)n1C2 [Compound A-63, N-Allylcytisine-12-carbamide]
Inhibition mechanism ([1]; Lineweaver-Burk analysis): mixed
Inhibition mechanism ([1]; Lineweaver-Burk analysis, listed as A63): Mixed inhibition
IC50 ([1]; 30 °C, pH 8.0, 1.25% DMSO): ~1470 µM and 1470 µM
IC50 ([1]; expressed in g L^−1): ≈ 0.4 g L^−1
IC50 ([1]; expressed in ppm): 400 ppm
α´ (effect on Vmax) ([1]; mixed inhibition parameter): 0.05
Mortality of A. salina (Artemia salina [2]; at 1000 ppm): 3%
Mortality of A. salina (Artemia salina [2]; at 2000 ppm): 3%
Toxicity classification according to Artemia salina test (Artemia salina [2]; class by percent mortality of nauplii): non-toxic (0–10% non-toxic compound)
Effect on A. salina viability (Artemia salina [2]; concentration less than 1000 ppm): did not affect
Effect on A. salina viability (Artemia salina [2]; concentration less than 2000 ppm): not affected

O=c1cccc2n1CC1CC2CN(C(=S)NC23CC4CC(CC(C4)C2)C3)C1 (centres unmarked) [Compound U-12, N-1-Adamantylcytisine-12-thiocarbamide]
Inhibition mechanism ([1]; Lineweaver-Burk analysis): Uncompetitive
IC50 ([1]; 30 °C, pH 8.0, 1.25% DMSO): ~3390 µM and 3390 µM
IC50 ([1]; expressed in g L^−1): ≈ 1.4 g L^−1
IC50 ([1]; expressed in ppm): 1400 ppm
Ki ([1]; read-out: Ki (inhibition constant), Lineweaver-Burk analysis): 70 µM

CNC(=O)Oc1ccc2c(c1)[C@]1(C)CCN(C)[C@@H]1N2C [Eserine]
Effect on larvae (Artemia salina [3]): larval paralysis
Inhibition of AChE activity in Artemia salina (Artemia salina [3]): strongly inhibit

C[n+]1c2ccccc2cc2ccccc21 [N-methylacridinium]
Inhibition mechanism (AChE [4]): competitive

C=C(C)C1CC=C(C)C(=O)C1 (centres unmarked) [S-carvone]
Inhibition mechanism (AChE [5]): mixed AChE inhibition

CC12CCC(CC1=O)C2(C)C (centres unmarked) [camphor]
Inhibition mechanism (AChE [5]): mixed AChE inhibition

CC[N+](C)(C)c1cccc(O)c1 [edrophonium]
Inhibition mechanism (AChE [4]): competitive

C=CCc1ccc(OC)cc1 [estragole]
Inhibition mechanism (AChE [5]): mixed AChE inhibition

COc1ccc2c3c1O[C@H]1C[C@@H](O)C=C[C@@]31CCN(C)C2 [galanthamine]
Inhibition mechanism (AChE [6]): competitive

Cytisine-12-carbamide [Compound A-36]
Inhibition mechanism ([1]; Lineweaver-Burk analysis): Competitive
